Assay results from US11440913B2, “Aminoimidazopyridazines as kinase inhibitors” (BRISTOL-MYERS SQUIBB COMPANY, priority 2017, dated 2022).
Where a name gives a salt, the structure may show the parent alone. Read-outs that look alike come from different tables or passages of the source.

Key:
[1] = test system: MLKL phosphorylation in HT29-L23 human colorectal adenocarcinoma cells; assay: MLKL Phosphorylation High-Content Assay; type: cell-based; conditions: 6 h, necroptosis induced with TNFα, SMAC mimetic and Z-VAD, read-out: pMLKL (IC50)
How it was run: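 HT29-L23 cells pretreated 30 min at 37 °C with compound (6.25 to 0.106 μM final), then necroptosis induced with TNFα 35 ng/mL, SMAC mimetic 700 nM and Z-VAD 140 nM for 6 h. Fixed cells immunostained for MLKL pS358 and imaged; IC50 and Ymax from 4-parameter logistic fit.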

[2] = biological target: His-GST-TVMV-hRIPK1(1-324) (Homo sapiens (Human), UniProt Q13546); assay: RIPK1 HTRF Binding Assay; conditions: HTRF binding, 1 h at rt; read-out: RIPK1 (IC50)
His-GST-TVMV-hRIPK1(1-324), sequence (Q13546 1-324): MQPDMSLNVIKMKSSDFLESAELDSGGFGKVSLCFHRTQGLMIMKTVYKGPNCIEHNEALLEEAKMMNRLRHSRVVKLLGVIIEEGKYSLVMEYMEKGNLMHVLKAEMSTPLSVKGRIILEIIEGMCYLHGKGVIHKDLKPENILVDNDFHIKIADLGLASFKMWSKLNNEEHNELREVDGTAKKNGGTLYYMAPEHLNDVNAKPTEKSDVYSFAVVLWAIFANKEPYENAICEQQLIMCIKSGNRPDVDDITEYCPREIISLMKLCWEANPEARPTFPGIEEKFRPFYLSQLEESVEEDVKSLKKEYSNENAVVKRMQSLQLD
How it was run: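 HTRF probe-displacement binding: 1 nM His-GST-TVMV-hRIPK1(1-324) (baculovirus construct), 90.6 nM probe, 0.2 nM anti-GST-Tb in 20 mM HEPES, 10 mM MgCl2, 0.015% Brij-35, 4 mM DTT, 0.05 mg/mL BSA. Incubated 1 h at rt; FRET 520/495 nm ratio, inhibition relative to DMSO-only wells.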

CCc1ncc(-c2ccc3nc(NC(C)=O)cn3n2)cc1C(=O)N[C@H](C)c1cc(OC(F)(F)F)ccc1F [Example 328, 5-{2-acetamidoimidazo[1,2-b]pyridazin-6-yl}-2-ethyl-N-[(1R)-1-[2-fluoro-5-(trifluoromethoxy)phenyl]ethyl]pyridine-3-carboxamide]
IC50 ([1]; Homo sapiens): 198 nM | IC50 [2]: 36 nM

CC(=O)Nc1cn2nc(-c3cc(F)cc(C(=O)NCC[C@@H](O)c4ccc(Cl)cc4)c3)ccc2n1 [Example 370, N-[(3R)-3-(4-chlorophenyl)-3-hydroxypropyl]-3-{2-acetamidoimidazo [1,2-b]pyridazin-6-yl}-5-fluorobenzamide]
IC50 ([1]; Homo sapiens): 210 nM | IC50 [2]: 34 nM

COc1ncc(-c2ccc3nc(NC(C)=O)cn3n2)cc1C(=O)NC[C@H]1C[C@@H]1c1ccc(F)cc1 [Example 161, 5-{2-acetamidoimidazo[1,2-b]pyridazin-6-yl}-N-{[(1S,2S)-2-(4-fluorophenyl)cyclopropyl]methyl}-2-methoxypyridine-3-carboxamide]
IC50 ([1]; Homo sapiens): 311 nM | IC50 [2]: 145 nM

COc1nc(C)c(-c2ccc3nc(NC(C)=O)cn3n2)cc1C(=O)NCc1cccc(F)c1OCC1CC1 [Example 299, N-{[2-(cyclopropylmethoxy)-3-fluorophenyl]methyl}-5-{2-acetamidoimidazo[1,2-b]pyridazin-6-yl}-2-methoxy-6-methylpyridine-3-carboxamide]
IC50 ([1]; Homo sapiens): 1 nM | IC50 [2]: 4 nM

CC(=O)Nc1cn2nc(-c3cnc(C)c(C(=O)N4CCCC(C(O)c5ccc(F)cc5)C4)c3)ccc2n1 (single isomer, unassigned) [Example 354, N-[6-(5-{3-[(4-fluorophenyl)(hydroxy)methyl]piperidine-1-carbonyl}-6-methylpyridin-3-yl)imidazo[1,2-b]pyridazin-2-yl]acetamide]
IC50 [1]: 223 nM | IC50 [2]: 212 nM

CC(=O)Nc1cn2nc(-c3cc(C(=O)NCc4cc(OC(F)(F)F)ccc4F)c(C)nc3C)ccc2n1 [Example 81, 5-{2-acetamidoimidazo[1,2-b]pyridazin-6-yl}-N-{[2-fluoro-5-(trifluoromethoxy)phenyl]methyl}-2,6-dimethylpyridine-3-carboxamide]
IC50 ([1]; Homo sapiens): 2 nM | IC50 [2]: 5 nM

[2H]C([2H])([2H])Oc1nc(C)c(-c2ccc3nc(NC(C)=O)cn3n2)cc1C(=O)NC([2H])([2H])c1cc(OC(F)(F)F)ccc1F [Example 175, 5-{2-acetamidoimidazo[1,2-b]pyridazin-6-yl}-N-{[2-fluoro-5-(trifluoromethoxy)phenyl](deutero)methyl}-2-(deutero)methoxy-6-methylpyridine-3-carboxamide]
IC50 ([1]; Homo sapiens): 16 nM | IC50 [2]: 4 nM

CC(=O)Nc1cn2nc(-c3cc(F)c(C)c(C(=O)NCc4c(F)cccc4C(=O)N4CCC(F)(F)C4)c3)ccc2n1 [Example 365, N-{[2-(3,3-difluoropyrrolidine-1-carbonyl)-6-fluorophenyl]methyl}-5-{2-acetamidoimidazo [1,2-b]pyridazin-6-yl}-3-fluoro-2-methylbenzamide]
IC50 ([1]; Homo sapiens): 116 nM | IC50 [2]: 37 nM

CC(=O)Nc1cn2nc(-c3cc(C(=O)NCc4cc(C(F)(F)F)ccc4F)c(C)nc3C)ccc2n1 [Example 80, 5-{2-acetamidoimidazo[1,2-b]pyridazin-6-yl}-N-{[2-fluoro-5-(trifluoromethyl)phenyl]methyl}-2,6-dimethylpyridine-3-carboxamide]
IC50 ([1]; Homo sapiens): 15 nM | IC50 [2]: 14 nM

COc1nc(C)c(-c2ccc3nc(NC(C)=O)cn3n2)cc1C(=O)NCCc1cccc(OC(F)(F)F)c1 [Example 304, 5-{2-acetamidoimidazo[1,2-b]pyridazin-6-yl}-2-methoxy-6-methyl-N-{2-[3-(trifluoromethoxy)phenyl]ethyl}pyridine-3-carboxamide]
IC50 ([1]; Homo sapiens): 67 nM | IC50 [2]: 206 nM

COc1ncc(-c2ccc3nc(NC(C)=O)c(C)n3n2)cc1C(=O)NCc1ccccc1OC(F)(F)F [Example 258, 5-{2-acetamido-3-methylimidazo[1,2-b]pyridazin-6-yl}-2-methoxy-N-{[2-(trifluoromethoxy)phenyl]methyl}pyridine-3-carboxamide, TFA]
IC50 ([1]; Homo sapiens): 57 nM | IC50 [2]: 72 nM

COc1ncc(-c2ccc3nc(NC(=O)C(C)(C)C#N)cn3n2)cc1C(=O)NCc1cc(F)cc(F)c1OCC1CC1 [Example 8, 5-[2-(2-Cyano-2,2-dimethylacetamido)imidazo[1,2-b]pyridazin-6-yl]-N-{[2-(cyclopropylmethoxy)-3,5-difluorophenyl]methyl}-2-methoxypyridine-3-carboxamide]
IC50 ([1]; Homo sapiens): 41 nM | IC50 [2]: 39 nM

CC(=O)Nc1cn2nc(-c3ccc(Cl)c(C(=O)NCc4ccc(OC(F)(F)F)cc4)c3F)ccc2n1 [Example 391, 6-chloro-3-{2-acetamidoimidazo [1,2-b]pyridazin-6-yl}-2-fluoro-N-{[4-(trifluoromethoxy)phenyl]methyl} benzamide]
IC50 ([1]; Homo sapiens): 274 nM | IC50 [2]: 105 nM

CC(=O)Nc1cn2nc(-c3cncc(C(=O)N[C@H](C)c4cc(OC(F)(F)F)ccc4F)c3)ccc2n1 [Example 235, 5-{2-acetamidoimidazo[1,2-b]pyridazin-6-yl}-N-[(1R)-1-[2-fluoro-5-(trifluoromethoxy)phenyl]ethyl]pyridine-3-carboxamide]
IC50 ([1]; Homo sapiens): 355 nM | IC50 [2]: 345 nM

[2H]C([2H])([2H])[C@H](NC(=O)c1cc(-c2ccc3nc(NC(C)=O)cn3n2)cnc1C)c1cc(OC(F)(F)F)ccc1F [Example 198, 5-{2-acetamidoimidazo[1,2-b]pyridazin-6-yl}-N-[(1S)-1-[2-fluoro-5-(trifluoromethoxy)phenyl](2,2,2-deutero)ethyl]-2-methylpyridine-3-carboxamide]
IC50 ([1]; Homo sapiens): 14 nM | IC50 [2]: 16 nM

COc1ncc(-c2ccc3nc(NC(C)=O)cn3n2)cc1C(=O)NCc1cc(C(F)(F)F)ccc1F [Example 111, 5-{2-acetamidoimidazo[1,2-b]pyridazin-6-yl}-N-{[2-fluoro-5-(trifluoromethyl)phen-yl](deutero)methyl}-2-methoxypyridine-3-carboxamide]
IC50 [1]: 36 nM | IC50 [2]: 19 nM

CC(=O)Nc1cn2nc(-c3cnc(Cl)c(C(=O)NC(C)c4cc(C(F)(F)F)ccc4F)c3)ccc2n1 (centres unmarked) [Example 270, 2-chloro-5-{2-acetamidoimidazo[1,2-b]pyridazin-6-yl}-N-{1-[2-fluoro-5-(trifluoromethyl)phenyl]ethyl}pyridine-3-carboxamide]
IC50 [1]: 204 nM | IC50 [2]: 23 nM

CC(=O)Nc1nc2ccc(-c3cnc(C)c(C(=O)NCc4cccc(OC(F)(F)F)c4)c3)nn2c1C [Example 251, 5-{2-acetamido-3-methylimidazo[1,2-b]pyridazin-6-yl}-2-methyl-N-{[3-(trifluoromethoxy)phenyl]methyl}pyridine-3-carboxamide]
IC50 ([1]; Homo sapiens): 305 nM | IC50 [2]: 53 nM

COc1nc(C)c(-c2ccc3nc(NC(C)=O)cn3n2)cc1C(=O)N(C)Cc1cccc(OC(F)(F)F)c1 [Example 281, 5-{2-acetamidoimidazo[1,2-b]pyridazin-6-yl}-2-methoxy-N,6-dimethyl-N-{[3-(trifluoromethoxy)phenyl]methyl}pyridine-3-carboxamide]
IC50 ([1]; Homo sapiens): 4 nM | IC50 [2]: 6 nM

CC(=O)Nc1cn2nc(-c3cncc(C(=O)NCc4ccccc4OC4CCCC4)c3)ccc2n1 [Example 21, N-{[2-(cyclopentyloxy)phenyl]methyl}-5-{2-acetamidoimidazo[1,2-b]pyridazin-6-yl}pyridine-3-carboxamide]
IC50 ([1]; Homo sapiens): 29 nM | IC50 [2]: 10 nM

COc1ncc(-c2ccc3nc(NC(C)=O)cn3n2)cc1C(=O)NCc1cc(F)cc(OCC2CC2)c1 [Example 140, N-{[3-(cyclopropylmethoxy)-5-fluorophenyl]methyl}-5-{2-acetamidoimidazo[1,2-b]pyridazin-6-yl}-2-methoxypyridine-3-carboxamide]
IC50 ([1]; Homo sapiens): 77 nM | IC50 [2]: 17 nM

CC(=O)Nc1cn2nc(-c3cc(C(=O)NCc4cc(F)cc(F)c4O[C@@H]4CCOC4)c(C)nc3C)ccc2n1 [Example 61, N-({3,5-difluoro-2-[(3R)-oxolan-3-yloxy]phenyl}methyl)-5-{2-acetamidoimidazo[1,2-b]pyridazin-6-yl}-2,6-dimethylpyridine-3-carboxamide]
IC50 ([1]; Homo sapiens): 258 nM | IC50 [2]: 33 nM

[2H]C([2H])([2H])[C@@H](NC(=O)c1cc(-c2ccc3nc(NC(C)=O)cn3n2)c(C)nc1C)c1cc(OC(F)(F)F)ccc1F [Example 70, 5-{2-acetamidoimidazo[1,2-b]pyridazin-6-yl}-N-[(1R)-1-[2-fluoro-5-(trifluoromethoxy)phenyl](2,2,2-deutero)ethyl]-2,6-dimethylpyridine-3-carboxamide]
IC50 ([1]; Homo sapiens): 9 nM | IC50 [2]: 9 nM

COc1ncc(-c2ccc3nc(NC(=O)C(C)C)cn3n2)cc1C(=O)NCc1cc(F)cc(F)c1OC1CCOCC1 [Example 265, N-{[3,5-difluoro-2-(oxan-4-yloxy)phenyl]methyl}-2-methoxy-5-[2-(2-methylpropanamido)imidazo[1,2-b]pyridazin-6-yl]pyridine-3-carboxamide]
IC50 ([1]; Homo sapiens): 7 nM | IC50 [2]: 3 nM

Cc1ncc(-c2ccc3nc(NC(=O)CN)cn3n2)cc1C(=O)N[C@H](C)c1cc(OC(F)(F)F)ccc1F [Example 341, 5-[2-(2-aminoacetamido)-imidazo[1,2-b]pyridazin-6-yl]-N-[(1R)-1-[2-fluoro-5-(trifluoromethoxy)-phenyl]ethyl]-2-methylpyridine-3-carboxamide]
IC50 ([1]; Homo sapiens): 492 nM | IC50 [2]: 91 nM
